Test results: patent US12344610B2, “APOL1 inhibitors and methods of use” (Maze Therapeutics, Inc., priority 2022, dated 2025)
pEC50: −log10 of the molar value.

Key:
[1] = system: HEK293 cells overexpressing APOL1 G2; experiment: APOL1 G2 HEK293 cell rescue assay (reversal of cell death caused by overexpression of APOL1); assay type: cell-based; conditions: geometric mean of at least 2 assay runs, † = single assay run
Description: Unless otherwise specified, EC50 values are reported as the geometric mean of at least 2 assay runs on separate days. Each run represents the average of a technical replicate, where each compound was assayed twice in the same plate. A superscript t symbol indicates a value from the average of a technical replicate from a single assay run, where each compound was assayed twice in the same plate. Compounds in Table 40 are referred to by the corresponding Compound Number in Table 1, which is also referred to in the synthetic examples. When one or more of the numbered compounds are identified by stereochemistry (for example, (R)- or (S)-), the specific stereoisomer for which data is provided in Table 40 may be identified by the elution order of such compound as described in the synthetic examples. Absolute stereochemistry of such compounds may be identified by methods known in the art. For Table 40 below, n/a represents “not available”.
Rescue EC50 values reported in Table 40 below represent the half-maximal effective concentration for reversal of cell death caused by overexpression of APOL1.

[2] = system: HEK293 clonal cell line overexpressing APOL1 G1; experiment: APOL1 G1 HEK293 cell rescue assay (Example B3); assay type: cell-based; conditions: geometric mean of at least 2 runs, † = single run, ¥ = concentration at 50% rescue estimated (no sigmoidal curve)
Description: Compounds were also assayed in a HEK293 clonal cell line overexpressing APOL1 G1 by a method similar to that shown in Example B2 above.
Unless otherwise specified, EC50 values are reported as the geometric mean of at least 2 assay runs on separate days. Each run represents the average of a technical replicate, where each compound was assayed twice in the same plate. A superscript † symbol indicates a value from the average of a technical replicate from a single assay run, where each compound was assayed twice in the same plate. A ¥ symbol represents compound concentration at 50% rescue estimated due to lack of sigmoidal curve preventing curve fitting. Compounds in Table 41 are referred to by the corresponding Compound Number in Table 1, which is also referred to in the synthetic examples. When one or more of the numbered compounds are identified by stereochemistry (for example, (R)- or (S)-), the specific stereoisomer for which data is provided in Table 41 may be identified by the elution order of such compound as described in the synthetic examples. Absolute stereochemistry of such compounds may be identified by methods known in the art. For Table 41 below, n/a represents “not available”.
Rescue EC50 values reported in Table 41 below represent the half-maximal effective concentration for reversal of cell death caused by overexpression of APOL1.

[3] = Homo sapiens, HEK293, HEK293 overexpressing APOL1 G2
[4] = Homo sapiens, HEK293, HEK293 clonal line overexpressing APOL1 G1
[5] = HEK293 clonal line overexpressing APOL1 G1

| Compound | pEC50 [1, 3] | pEC50 [2, 4] | pEC50 ([1]; HEK293 overexpressing APOL1 G2) | pEC50 [2, 5] |
| --- | --- | --- | --- | --- |
| CS(=O)(=O)C1(c2ccc(OCCN3CCC4(CC3)C(=O)Nc3ccc(C(F)F)cc34)cc2)CC(O)C1 (stereo not drawn) [Compound 280, 5-(difluoromethyl)-1′-{2-[4-(3-hydroxy-1-methanesulfonylcyclobutyl)phenoxy]ethyl}-1,2-dihydrospiro[indole-3,4′-piperidin]-2-one] | 7.10 | 6.63 | – | – |
| C[C@]1(O)C[C@@H](N2C(=O)NCc3cc(OCCN4CCC5(CC4)C(=O)Nc4ccc(C#N)cc45)cc(C(F)(F)F)c32)C1 [Compound 457, 2-oxo-1′-[2-({2-oxo-1-[(cis)-3-hydroxy-3-methylcyclobutyl]-8-(trifluoromethyl)-1,2,3,4-tetrahydroquinazolin-6-yl}oxy)ethyl]-1,2-dihydrospiro[indole-3,4′-piperidine]-5-carbonitrile] | 6.56 | < 5.48 | – | – |
| CCC1(O)CC(N2C(=O)CCc3cc(OCCN4CCC5(CC4)C(=O)Nc4ccc(Cl)cc45)cnc32)C1 (stereo not drawn) [Compound 318] | 7.63 | 7.18 | – | – |
| CC1(O)CC(c2ncc(OCCN3CCC4(CC3)C(=O)Nc3ccc(Cl)cc34)cn2)C1 (stereo not drawn) [Compound 373, 5-chloro-1′-(2-{[2-(3-hydroxy-3-methylcyclobutyl)pyrimidin-5-yl]oxy}ethyl)-1,2-dihydrospiro[indole-3,4′-piperidin]-2-one] | 7.27 | 6.88 | – | – |
| O=C1Nc2ccc(Cl)cc2C12CCN(CCOc1cnc(C(O)CO)nc1)CC2 (single isomer, unassigned) [Compound 379, 5-chloro-1′-[2-({2-[(1R or 1S)-1,2-dihydroxyethyl]pyrimidin-5-yl}oxy)ethyl]-1,2-dihydrospiro[indole-3,4′-piperidin]-2-one] | – | – | 6.07 | < 5.00 |
| CP(C)(=O)C1(c2ncc(OCCN3CCC4(CC3)C(=O)Nc3ccc(Cl)cc34)cn2)CC1 [Compound 344, 5-chloro-1′-[2-({2-[1-(dimethylphosphoryl)cyclopropyl]pyrimidin-5-yl}oxy)ethyl]-1,2-dihydrospiro[indole-3,4′-piperidin]-2-one] | 6.71 | 6.60 | – | – |
| C[C@]1(O)C[C@@H](N2C(=O)CCc3cc(OCCN4CCC5(CC4)C(=O)Nc4c(Cl)cc(Cl)cc45)cnc32)C1 [Compound 409, 5,7-dichloro-1′-[2-({7-oxo-8-[(cis)-3-hydroxy-3-methylcyclobutyl]-5,6,7,8-tetrahydro-1,8-naphthyridin-3-yl}oxy)ethyl]-1,2-dihydrospiro[indole-3,4′-piperidin]-2-one] | 7.15 | 6.87 | – | – |
| C[C@]1(O)C[C@@H](N2C(=O)CCc3cc(OCCN4CCC5(CC4)C(=O)Nc4ccc(C#N)cc45)cc(C(F)(F)F)c32)C1 [Compound 354, 2-oxo-1′-[2-({2-oxo-1-[(cis)-3-hydroxy-3-methylcyclobutyl]-8-(trifluoromethyl)-1,2,3,4-tetrahydroquinolin-6-yl}oxy)ethyl]-1,2-dihydrospiro[indole-3,4′-piperidine]-5-carbonitrile] | 7.84 | 7.40 | – | – |
| O=C1CCc2cc(OCCN3CCC4(CC3)C(=O)Nc3ccc(Cl)cc34)cnc2N1 [Compound 293, 5-chloro-1′-{2-[(7-oxo-5,6,7,8-tetrahydro-1,8-naphthyridin-3-yl)oxy]ethyl}-1,2-dihydrospiro[indole-3,4′-piperidin]-2-one] | 6.53 | 6.71 | – | – |
| O=C1Nc2ccc(Cl)cc2C12CCN(CCOc1cnc(C(O)CO)nc1)CC2 (stereo not drawn) [Compound 330, 5-chloro-1′-(2-{[2-(1,2-dihydroxyethyl)pyrimidin-5-yl]oxy}ethyl)-1,2-dihydrospiro[indole-3,4′-piperidin]-2-one] | 6.18 | ~5.82 | – | – |
| CN1C(=O)C2(CCN(CCOc3ccc(C4(S(C)(=O)=O)CC(O)C4)cc3)CC2)c2cc(C(F)F)ccc21 (stereo not drawn) [Compound 277, 5-(difluoromethyl)-1′-{2-[4-(3-hydroxy-1-methanesulfonylcyclobutyl)phenoxy]ethyl}-1-methyl-1,2-dihydrospiro[indole-3,4′-piperidin]-2-one] | 7.47 | 6.93 | – | – |
| CC(CO)(c1ncc(OCCN2CCC3(CC2)C(=O)Nc2ccc(Cl)cc23)cc1C(F)(F)F)S(C)(=O)=O (single isomer, unassigned) [Compound 403, 5-chloro-1′-[2-({6-[(2R or 2S)-1-hydroxy-2-methanesulfonylpropan-2-yl]-5-(trifluoromethyl)pyridin-3-yl}oxy)ethyl]-1,2-dihydrospiro[indole-3,4′-piperidin]-2-one] | – | – | 7.02 | 6.84 |
